Molecular target: T1, hOX2R (Homo sapiens, UniProt O43614)
T1 construct: expressed in transfected cells; host or cells: CHO cells (G418 selection)
T1 sequence (O43614 1-444): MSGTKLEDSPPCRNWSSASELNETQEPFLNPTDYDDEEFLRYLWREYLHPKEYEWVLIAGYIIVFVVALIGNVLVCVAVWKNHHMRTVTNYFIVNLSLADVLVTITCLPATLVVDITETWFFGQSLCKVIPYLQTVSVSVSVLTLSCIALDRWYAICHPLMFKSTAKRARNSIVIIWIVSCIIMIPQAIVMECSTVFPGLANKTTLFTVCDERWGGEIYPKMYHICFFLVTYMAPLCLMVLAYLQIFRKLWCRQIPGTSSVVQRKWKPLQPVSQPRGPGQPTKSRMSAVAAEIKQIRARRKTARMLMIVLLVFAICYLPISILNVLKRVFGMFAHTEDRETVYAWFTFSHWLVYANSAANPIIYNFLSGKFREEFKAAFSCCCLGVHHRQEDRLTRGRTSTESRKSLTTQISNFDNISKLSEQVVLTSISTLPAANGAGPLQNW
Assay: hOX2R IPone assay (orexin receptor agonism)
Assay type: cell-based
Settings: IPone readout; for hOX2R_Ipone max %act: maximal activation; for EC50: orexin receptor agonist, read-out: hOX2R_IPone EC50

hOX2R_Ipone max %act [%]	EC50 [nM]	Structure (SMILES)
101.4	6	CCN1C(=O)N[C@@H](CCC(F)(F)F)CCCCCOc2nc(cn3cc(C)nc23)-c2cc(nc3ccoc23)C1C (single isomer, unassigned) [Example 75B]
102.4	13.5	CCN1C(=O)NC(CC2CCCC2)CCCCCOc2nc(cn3ccnc23)-c2cc(ncc2OC)[C@H]1C (single isomer, unassigned) [Example 65A]
100	61.6	CCN1C(=O)N[C@@H](CCC(F)(F)F)CCCCCOc2nc(cn3ccnc23)-c2nc(co2)C1C (single isomer, unassigned) [Example 105B]
102	143	CCCC1CCCCCOc2nc(cn3ccnc23)-c2cc(ncc2OC)[C@@H](C)N(CC)C(=O)N1 (single isomer, unassigned) [Example 54A]
101.9	1.5	CCN1C(=O)N[C@@H](CCC(F)(F)F)CCCCCOc2nc(cn3ccnc23)-c2nc(ncc2OC)[C@H]1C [Example 117B, (12R,16R)-13-ethyl-8-methoxy-12-methyl-16-(3,3,3-trifluoropropyl)-12,13,16,17,18,19,20,21-octahydro-6,23:11,7-di(azeno)imidazo[2,1-c][1,4,10,13,15]oxatetraazacyclohenicosin-14(15H)-one]
101.9	1	CCN1C(=O)NC(CC2CCCC2)CCCCCOc2nc(cn3ccnc23)-c2cc(ncc2OC)[C@H]1C (single isomer, unassigned) [Example 65B]
97.7	60.5	CCN1C(=O)N[C@@H](C(F)(F)F)CCCCOc2nc(cn3ccnc23)-c2cc(ncc2OC)C1C(F)(F)F (single isomer, unassigned) [Example 39A]
97.9	167	CCN1C(=O)N[C@@H](CCC(F)(F)F)CCCCCOc2nc(cn3ccnc23)C2=NC=C(S2)C1C (single isomer, unassigned) [Example 94A]

The next lines start with the compound.

Structure (SMILES)	hOX2R_Ipone max %act [%]	EC50 [nM]
CCN1C(=O)N[C@@H](CC(F)(F)F)CCCCCOc2nc(nn3ccnc23)-c2cc(cnc2OC)[C@H]1C [Example 99, (12R,16R)-13-ethyl-8-methoxy-12-methyl-16-(2,2,2-trifluoroethyl)-12,13,16,17,18,19,20, 21-octahydro-6,23-(azeno)-11,7-(metheno)imidazo[2,1-c][1,4,5,9,13,15] oxapentaazacycloheni-cosin-14(15H)-one]	95.9	48.8
CCN1C(=O)NC(C2CCCO2)CCCCCOc2nc(cn3ccnc23)-c2cc(ncc2OC)[C@H]1C (stereo partly drawn) [Example 193, (3R,E)-4-ethyl-25-methoxy-3-methyl-7-(tetrahydrofuran-2-yl)-13-oxa-4,6-diaza-1(6,8)-imidazo[1,2-a]pyrazina-2(4,2)-pyridinacyclotri-decaphan-5-one]	100.7	1.21
CCN1C(=O)NCCN(C(C)C)CCOc2nc(cn3ccnc23)-c2cccc(c2)[C@H]1C [Example 3, (12R)-13-ethyl-12-methyl-18-(propan-2-yl)-12,13,15,16,17,18,19,20-octahydro-14H-6,22-(azeno)-11,7-(metheno)imidazo[1,2-r][1,4,7,9,18]oxatetraaza-cycloicosin-14-one]	88.8	2500
CCN1C(=O)N[C@@H](CCC(F)(F)F)CCCCCOc2cc(cc3ccnn23)-c2cc(nnc2OC)[C@H]1C [Example 140, (3R,7R,E)-4-ethyl-26-methoxy-3-methyl-7-(3,3,3-trifluoropropyl)-13-oxa-4,6-diaza-1(5,7)-pyrazolo[1,5-a]pyridina-2(5,3)-pyridazinacyclotridecaphan-5-one]	101.9	1.4
CCN1C(=O)NCCOCCCOc2nc(cn3ccnc23)-c2cccc(c2)[C@H]1C [Example 17, (12R)-13-ethyl-12-methyl-12,13, 16,17,20,21-hexahydro-19H-6,23-(azeno)-11,7-(metheno) imidazo[1,2-o][1, 18,4,6,15]dioxa-triazacyclohenicosin-14(15H)-one]	99.6	19.4
CCN1C(=O)NCc2nc(cs2)CCOc2nc(cn3ccnc23)-c2cccc(c2)[C@H]1C [Example 22, (R,27E,6^2Z)-10-ethyl-11-methyl-3-oxa-8,10-diaza-6(4,2)-thiazola-2(6,8)-imidazo[1,2-a]pyrazina-1(1,3)-benzenacycloundecaphan-9-one]	94.8	82.6
CCN1Cc2cc(c(OC)cn2)-c2cn3ccnc3c(n2)OCCCC[C@H](CCC(F)(F)F)NC1=O [Example 45, (16R)-13-ethyl-8-methoxy-16-(3,3,3-trifluoropropyl)-12,13,15,16,17,18,19,20-octahydro-14H-6,22-(azeno)-11,7-(metheno)imidazo[2,1-c][1,4,10,13,15]oxatetra-azacycloicosin-14-one]	100.1	14.1
CCN1C(=O)NC(c2csc(C)n2)CCCCCOc2nc(cn3ccnc23)-c2cc(cnc2OC)C1C [Example 215, (3R,E)-4-ethyl-22-methoxy-3-methyl-7-(2-methylthiazol-4-yl)-13-oxa-4,6-diaza-1(6,8)-imidazo[1,2-a]pyrazina-2(3,5)-pyridinacyclotridecaphan-5-one]	104.9	3.56
CCN1C(=O)N[C@@H](CCC(C)(F)F)CCCCCOc2nc(cc3ncnn23)-c2cc(ncc2OC)[C@H]1C [Example 176]	99.6	2.97
CCN1C(=O)NC(C(C)OC)CCCCCOc2nc(cn3ccnc23)-c2cc(ncc2OC)[C@H]1C (stereo partly drawn) [Example 191, (3R,E)-4-ethyl-25-methoxy-7-(1-methoxyethyl)-3-methyl-13-oxa-4,6-diaza-1(6,8)-imidazo[1,2-a]pyrazina-2(4,2)-pyridinacyclotridecaphan-5-one]	102.3	1.73
CCN1C(=O)N[C@@H](CCC(F)(F)F)CCOCCOc2cc(cn3ncnc23)-c2cc(ncc2OC)[C@H]1C [Example 150, (3R,7S,E)-4-ethyl-25-methoxy-3-methyl-7-(3,3,3-trifluoropropyl)-10,13-dioxa-4,6-diaza-1(6,8)-[1,2,4]triazolo[1,5-a]pyridina-2(4,2)-pyridinacyclotridecaphan-5-one]	103	2.43
CCN1C(=O)NC(CCC(F)(F)F)CCCCCOc2cc(n3nccc3c2)-c2ccnc(c2)C1C [Example 156, (3R,7R,E)-4-ethyl-3-methyl-7-(3,3,3-trifluoropropyl)-13-oxa-4,6-diaza-1(5,7)-pyrazolo[1,5-a]pyridina-2(4,2)-pyridinacyclotridecaphan-5-one]	100.3	1.32
CCN1C(=O)N[C@@H](CCC(F)(F)F)CCCCCOc2nc(cn3ccnc23)-c2nc(cnc2OC)[C@H]1C [Example 139, (3R,7R,E)-4-ethyl-23-methoxy-3-methyl-7-(3,3,3-trifluoropropyl)-13-oxa-4,6-diaza-1(6,8)-imidazo[1,2-a]pyrazina-2(2,6)-pyrazinacyclotridecaphan-5-one]	97.88	1.08
CCN1C(=O)NC(CCC#N)CCCCCOc2nc(cn3ccnc23)-c2cc(ncc2OC)[C@H]1C (stereo partly drawn) [Example 196, 3-((3R,E)-4-ethyl-25-methoxy-3-methyl-5-oxo-13-oxa-4,6-diaza-1(6,8)-imidazo[1,2-a]pyrazina-2(4,2)-pyridinacyclotridecaphane-7-yl)propanenitrile]	101.6	0.44
CCN1C(=O)NC(CCC(F)F)CCCCCOc2nc(cn3ccnc23)-c2cc(ncc2C2CC2)[C@H]1C (stereo partly drawn) [Example 197, (3R,E)-25-cyclopropyl-7-(3,3-difluoropropyl)-4-ethyl-3-methyl-13-oxa-4,6-diaza-1(6,8)-imidazo[1,2-a]pyrazina-2(4,2)-pyridina-cyclotridecaphan-5-one]	105.4	1.3
CCN1C(=O)NC(C2CC(F)(F)C2)CCCCCOc2nc(cn3ccnc23)-c2cc(ncc2OC)[C@H]1C (stereo partly drawn) [Example 195, (3R,E)-7-(3,3-difluorocyclobutyl)-4-ethyl-25-methoxy-3-methyl-13-oxa-4,6-diaza-1(6,8)-imidazo[1,2-a]pyrazina-2(4,2)-pyridinacyclotri-decaphan-5-one]	101.4	0.84
CCN1C(=O)NC(c2nnnn2C)CCCCCOc2nc(cn3ccnc23)-c2cc(ncc2OC)[C@H]1C (stereo partly drawn) [Example 217, (3R,E)-4-ethyl-2^5-methoxy-3-methyl-7-(1-methyl-1H-tetrazol-5-yl)-13-oxa-4,6-diaza-1(6,8)-imidazo[1,2-a]pyrazina-2(4,2)-pyridinacyclotridecaphan-5-one]	100.1	0.98
CCN1CCCOc2nc(cn3ccnc23)-c2cccc(c2)[C@@H](C)N(CC)C(=O)NCC1 [Example 15, (12R)-13,18-diethyl-12-methyl-12,13,16, 17,18,19,20,21-octahydro-6,23-(azeno)-11,7-(metheno) imidazo[2,1-c][1,4,13,15,18]oxa-tetraazacyclo-henicosin-14(15H)-one]	96.2	1180

— US12686690B2, “Macrocyclic urea orexin receptor agonists” (Merck Sharp & Dohme LLC, priority 2020, dated 2026)
